Among the test systems are K-562 leukemia; HCC-2998 colon; SF-295 CNS; SK-MEL-28 melanoma; M14 melanoma; CCRF-CEM leukemia; TK-10 renal; SF-539 CNS; CAKI-1 renal; U251 CNS.
Holding throughout (experiment): NCI tumour cell line growth inhibition, 48 h

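In this assay, cells in 96-well plates receive the compound at five concentrations for 48 hours. Endpoints are linearly interpolated between the surrounding concentrations. Here, GI50 denotes the concentration required for 50% inhibition of growth. TGI: concentration producing complete growth inhibition.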

For `COC1CCC(O)C(CO)O1` (configuration not stated), the TGI is 47.6 µM in the assay with K-562 leukemia; above 100 µM with HCC-2998 colon; above 100 µM in the assay with SF-295 CNS; above 100 µM with SK-MEL-28 melanoma; above 100 µM in the assay on M14 melanoma; 77.3 µM in the assay with CCRF-CEM leukemia. Moreover, the TGI in the assay on TK-10 renal and in the assay on SF-539 CNS was above 100 µM each time.
Take `NCC(=O)N[C@H]1c2ccsc2/C(=N/O)[C@H]1O`: the TGI in the assay with CAKI-1 renal, with K-562 leukemia, in the assay on HCC-2998 colon, in the assay on SF-295 CNS, with SK-MEL-28 melanoma and in the assay with M14 melanoma was above 100 µM each time. Besides, the TGI in the assay with U251 CNS, with CCRF-CEM leukemia, with TK-10 renal and with SF-539 CNS was above 100 µM throughout.
In the case of `COc1ccccc1C1C(C#N)=C(N)SC(N)=C1C#N`, the GI50 was 7.71 µM with CAKI-1 renal; 41.8 µM with K-562 leukemia; above 100 µM in the assay with HCC-2998 colon; 67 µM in the assay on SF-295 CNS; 43.3 µM in the assay on SK-MEL-28 melanoma; 91.6 µM with M14 melanoma. Also, the GI50 was 54 µM in the assay with U251 CNS, 26.6 µM in the assay with CCRF-CEM leukemia, above 100 µM in the assay with TK-10 renal and 90.7 µM with SF-539 CNS. Besides, the TGI in the assay on CAKI-1 renal, in the assay with K-562 leukemia, in the assay with HCC-2998 colon, in the assay with SF-295 CNS, in the assay with SK-MEL-28 melanoma and in the assay on M14 melanoma was above 100 µM in each case. Also, the TGI in the assay on U251 CNS is above 100 µM; in the assay with CCRF-CEM leukemia, 70.4 µM; in the assay with TK-10 renal it was above 100 µM; with SF-539 CNS, above 100 µM.
On to `CCOC(=O)c1ccc(N2C(=O)/C(=C/c3ccc(N(CCC#N)CCC#N)cc3)N=C2c2cc([N+](=O)[O-])ccc2Cl)cc1`, for which the TGI with CAKI-1 renal, with K-562 leukemia, in the assay with HCC-2998 colon, with SF-295 CNS, in the assay on SK-MEL-28 melanoma and with U251 CNS was above 100 µM each time. For the same compound, the TGI in the assay with CCRF-CEM leukemia, in the assay on TK-10 renal and in the assay on SF-539 CNS was above 100 µM each time.
As for `CC1OC1C(=O)P(=O)(O)O` (configuration not stated), the TGI in the assay with CAKI-1 renal, in the assay with K-562 leukemia, in the assay with HCC-2998 colon, with SF-295 CNS, with SK-MEL-28 melanoma and in the assay on M14 melanoma was above 100 µM each time. The TGI with U251 CNS, in the assay on CCRF-CEM leukemia, in the assay on TK-10 renal and in the assay with SF-539 CNS was above 100 µM each time.
